Earlier results, collected in US20160184299A1, “COMBINATION COMPOSITION COMPRISING OXYCODONE AND ACETAMINOPHEN FOR RAPID ONSET AND EXTENDED DURATION OF ANALGESIA” (MALLINCKRODT LLC, priority 2011, published 2016).

Test system: hepatic GSH
Conditions: mice, cited from earlier work

CC(=O)Nc1ccc(O)cc1 [acetaminophen]
Time to onset of circulating hepatic GSH changes after administration (100 mg/kg to 600 mg/kg): ≤ 15 min | Time of minimum GSH level after injection (all dose groups): 2 h
